Results on seven compounds are retold here after patent publication US5489675A, “Disaccharide sialidase substrates and inhibitors” (priority 1993, dated 1996).

The target of test [1] is Vibrio cholerae neuraminidase (Vibrio cholerae serotype O1, UniProt P0C6E9). Type of test: biochemical. The note with it: for rate of hydrolysis (time course): 0.75 mM sialoside, 37° C., 0-120 min, FIGS. 1 and 3 panel C.
The target of test [2] is T1, Arthrobacter ureafaciens neuraminidase (Paenarthrobacter ureafaciens, UniProt Q5W7Q2).
T1 sequence (Q5W7Q2 39-990): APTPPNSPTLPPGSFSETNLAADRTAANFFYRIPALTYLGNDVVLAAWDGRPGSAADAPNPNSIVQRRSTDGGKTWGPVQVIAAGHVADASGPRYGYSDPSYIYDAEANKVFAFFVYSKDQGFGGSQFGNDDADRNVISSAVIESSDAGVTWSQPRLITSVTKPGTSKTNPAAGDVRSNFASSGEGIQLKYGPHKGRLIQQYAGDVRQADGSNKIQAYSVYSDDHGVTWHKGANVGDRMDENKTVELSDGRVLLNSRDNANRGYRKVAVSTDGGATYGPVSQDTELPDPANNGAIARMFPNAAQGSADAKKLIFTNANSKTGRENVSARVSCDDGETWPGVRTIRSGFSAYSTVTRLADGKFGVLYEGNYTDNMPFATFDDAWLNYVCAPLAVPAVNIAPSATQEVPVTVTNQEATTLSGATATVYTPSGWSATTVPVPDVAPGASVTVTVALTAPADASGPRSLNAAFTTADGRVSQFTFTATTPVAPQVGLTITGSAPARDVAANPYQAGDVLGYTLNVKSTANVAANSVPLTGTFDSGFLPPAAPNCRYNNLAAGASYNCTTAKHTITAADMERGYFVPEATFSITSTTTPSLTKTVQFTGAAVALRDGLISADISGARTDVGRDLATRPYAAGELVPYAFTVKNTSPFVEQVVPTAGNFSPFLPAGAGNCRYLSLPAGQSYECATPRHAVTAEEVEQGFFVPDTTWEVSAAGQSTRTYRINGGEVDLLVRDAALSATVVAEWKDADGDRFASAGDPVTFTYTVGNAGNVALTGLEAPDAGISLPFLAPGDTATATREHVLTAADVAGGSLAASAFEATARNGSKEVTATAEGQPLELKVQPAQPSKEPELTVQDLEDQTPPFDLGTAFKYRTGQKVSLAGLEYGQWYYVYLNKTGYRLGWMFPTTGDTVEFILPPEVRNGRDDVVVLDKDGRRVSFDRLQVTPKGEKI
Description: colorimetric neuraminidase assay (sialoside hydrolysis), A. ureafaciens. It is filed as biochemical. The note with it: 37° C.; for rate of hydrolysis (time course): A. U. neuraminidase, 0.75 mM sialoside, 0-120 min, FIGS. 1 and 3 panel A; for Vmax: A. ureafaciens neuraminidase, sialoside as substrate, 20 min, Lineweaver-Burk.

The subject of test [3] is Clostridium perfringens neuraminidase. Type of test: biochemical. The note with it: for rate of hydrolysis (time course): C. P. neuraminidase, 0.75 mM sialoside, 0-120 min, FIGS. 1 and 3 panel B; for rate of hydrolysis (time course) / Vmax: 37° C.; for Vmax: C. perfringens neuraminidase, sialoside as substrate, 20 min, Lineweaver-Burk; for Km: read-out: Michaelis Constant Km.

The target of a further test is C. P. neuraminidase. Type of test: biochemical, Clostridium perfringens. The following applies: substrate 25, Dixon plots, 37° C.

Usually Ki stands for a measure of affinity in units of concentration, obtained from inhibition or displacement. In general, Km refers to the substrate concentration at which the rate is half of its maximum.

Counter-ions that a name gives are not always drawn.

Sequence of Vibrio cholerae neuraminidase (P0C6E9 25-781): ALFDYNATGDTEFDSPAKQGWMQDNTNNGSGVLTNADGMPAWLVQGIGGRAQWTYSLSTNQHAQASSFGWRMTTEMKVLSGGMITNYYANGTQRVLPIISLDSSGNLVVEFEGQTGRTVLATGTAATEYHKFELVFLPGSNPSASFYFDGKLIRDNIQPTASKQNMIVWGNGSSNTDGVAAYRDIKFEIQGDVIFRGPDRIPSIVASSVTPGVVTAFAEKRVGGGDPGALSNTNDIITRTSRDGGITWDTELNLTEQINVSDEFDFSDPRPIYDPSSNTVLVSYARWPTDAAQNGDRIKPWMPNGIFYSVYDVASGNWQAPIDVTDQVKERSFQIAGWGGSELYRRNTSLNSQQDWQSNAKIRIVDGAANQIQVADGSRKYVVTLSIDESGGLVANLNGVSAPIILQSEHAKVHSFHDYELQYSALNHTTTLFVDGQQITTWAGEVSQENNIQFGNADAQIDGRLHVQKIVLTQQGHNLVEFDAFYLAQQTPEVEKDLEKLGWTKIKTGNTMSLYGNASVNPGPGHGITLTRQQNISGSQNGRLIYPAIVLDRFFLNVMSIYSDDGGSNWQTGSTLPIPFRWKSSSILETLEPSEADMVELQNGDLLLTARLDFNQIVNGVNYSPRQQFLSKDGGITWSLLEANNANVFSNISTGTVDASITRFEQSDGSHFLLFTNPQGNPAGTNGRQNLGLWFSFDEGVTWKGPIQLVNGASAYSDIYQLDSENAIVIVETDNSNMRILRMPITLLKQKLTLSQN

With `CC(=O)N[C@H]1[C@H]([C@H](O)[C@H](O)CO)O[C@@](O[C@H](C)[C@H]2O[C@@H]3OC(C)(C)O[C@@H]3[C@H]3OC(C)(C)O[C@H]32)(C(=O)O)C[C@@H]1O` [Compound 19a, Sodium salt of 5-acetamido-3,5-dideoxy-D-glycero-D-galacto-nonulopyranosylonic acid (2-6)-1,2;3,4-di-O-isopropylidene-7-deoxy-α-D-glycero-D-galactoheptopyranose], the figures for the “rate of hydrolysis (time course)” value in test [1], in test [2] and in test [3] were “no effect on the hydrolysis”, “no effect on the hydrolysis” and “detrimental effect”, respectively.

As for `CC(=O)NC1C(O)CC(SC(C)C2OC(O)C(O)C(O)C2O)(C(=O)O)OC1C(O)C(O)CO` [Compound 22a, Sodium salt of 5-acetamido-3,5-dideoxy-D-glycero-D-galacto-nonulopyranosylonic acid (2-S-6) -7-deoxy-D-glycero-D-galactoheptopyranose], the Ki at C. P. neuraminidase was found to be 1000 µM.

With `CC(=O)N[C@H]1[C@H]([C@H](O)[C@H](O)CO)O[C@@](OC[C@H]2O[C@@H]3OC(C)(C)O[C@@H]3[C@H]3OC(C)(C)O[C@H]32)(C(=O)O)C[C@@H]1O` [Compound 23b, reference compound], the figures for the Vmax in test [1], in test [2] and in test [3] were 4.5 O.D./mU, 0.73 O.D./mU and 1.70 O.D./mU, respectively. Further, the “rate of hydrolysis (time course)” value in test [1], in test [2] and in test [3] was “more efficiently hydrolyzed” in each case. The Km in test [3] came to 1440 µM.

Take `CC(=O)N[C@H]1[C@H]([C@H](O)[C@H](O)CO)O[C@@](O[C@@H](C)[C@H]2O[C@@H](OCC[Si](C)(C)C)[C@H](O)[C@@H](O)[C@H]2O)(C(=O)O)C[C@@H]1O` [Compound 16b, Sodium salt of 5-acetamido-3,5-dideoxy-D-glycero-D-galacto-nonulopyranosylonate(2-6)-7-deoxy-α-L-glycero-D-galactoheptopyranosyl-OCH2 CH2 Si (CH3)3]: the Vmax in test [1] is given as 0.37 O.D./mU. Besides, in test [2], the “rate of hydrolysis (time course)” value is reported as “little hydrolysis” and the Vmax is recorded as 0.05 O.D./mU. In test [3], the “rate of hydrolysis (time course)” value is recorded as “hydrolyzed very slowly”, the Vmax was found to be 0.22 O.D./mU and the Michaelis constant (Km) turned out to be 3200 µM.

For the compound `CC(=O)NC1C(O)CC(OCC2OC(OCC[Si](C)(C)C)C(O)C(O)C2O)(C(=O)O)OC1C(O)C(O)CO` (centres unmarked) [Compound 23a, αDNeuAc (2-6) βDGal-OCH2 CH2 Si (CH3)3, reference compound], in test [1], the Vmax was 2.2 O.D./mU and the “rate of hydrolysis (time course)” value is “most preferred substrate”. In test [2], the “rate of hydrolysis (time course)” value was “efficiently hydrolyzed” and the Vmax is reported as 0.7 O.D./mU. Moreover, in test [3], the “rate of hydrolysis (time course)” value was “faster than the tg sialoside 16a”, the Vmax was determined as 0.88 O.D./mU and the Michaelis constant (Km) is 650 µM.

`CC(=O)N[C@H]1[C@H]([C@H](O)[C@H](O)CO)O[C@@](O[C@@H](C)[C@H]2O[C@@H]3OC(C)(C)O[C@@H]3[C@H]3OC(C)(C)O[C@H]32)(C(=O)O)C[C@@H]1O` [Compound 19b, Sodium salt of 5-acetamido-3,5-dideoxy-D-glycero-D-galacto-nonulopyranosylonic acid (2-6)-1,2;3,4-di-O-isopropylidene-7-deoxy-α-D-glycero-D-galactoheptopyranose]: the “rate of hydrolysis (time course)” value in test [1] and in test [3] was “inactive” in each case.

For the compound `CC(=O)N[C@H]1[C@H]([C@H](O)[C@H](O)CO)O[C@@](O[C@H](C)[C@H]2O[C@@H](OCC[Si](C)(C)C)[C@H](O)[C@@H](O)[C@H]2O)(C(=O)O)C[C@@H]1O` [Compound 16a, Sodium salt of 5-acetamido-3,5-dideoxy-D-glycero-D-galacto-nonulopyranosylonate(2-6)-7-deoxy-β-D-glycero-D-galactoheptopyranosyl-OCH2 CH2 Si (CH3)3], the Vmax in test [1] is listed as 1.42 O.D./mU; in test [2], 0.91 O.D./mU; in test [3] it was 0.90 O.D./mU. Also, the “rate of hydrolysis (time course)” value in test [1] is listed as “preferentially hydrolyzed”; in test [2] it was “efficiently hydrolyzed”. Besides, in test [3], the Michaelis-Menten constant (Km) stood at 2150 µM.
